The first assay concerns NCI-H1651. The assay is described as follows: relative viability (nuclei count vs DMSO), 5 days (fraction); higher = more cells survive. Conditions: first compound 0.08 µM. The essentials: (§1)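 Relative viability equals treated-well nuclei counts divided by vehicle-well nuclei counts. Counts came from 4× images of lung cancer cell lines grown in 1536-well plates for 5 days after pin-tool dosing on the day after seeding. Dosing used one drug alone or a fixed anchor-drug dose plus five library-drug doses (not always all listed) in √10 steps, and values are medians of duplicate plates.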
Turning to `CCCCCCCCCCCC1=C(O)C(=O)C=C(O)C1=O` [Embelin] + COc1cccc2cc(-c3nc([C@H]4CC[C@H](C(=O)O)CC4)n4ncnc(N)c34)[nH]c12 [OSI-027] (partner 0.5 µM), the relative viability turned out to be 0.749.
As for `CCCCCCCCCCCC1=C(O)C(=O)C=C(O)C1=O` [Embelin] + Nc1nc2[nH]cc(CCc3ccc(C(=O)N[C@@H](CCC(=O)O)C(=O)O)cc3)c2c(=O)[nH]1 [Pemetrexed] (partner 0.2 µM), the relative viability came to 0.58.

Staying with this assay, now noted: first compound 0.8 µM.
Molecule `CCCCCCCCCCCC1=C(O)C(=O)C=C(O)C1=O` [Embelin] + CCNC(=O)c1noc(-c2cc(C(C)C)c(O)cc2O)c1-c1ccc(CN2CCOCC2)cc1 [Luminespib] (partner 0.01 µM) had a relative viability of 0.944.
As for `CCCCCCCCCCCC1=C(O)C(=O)C=C(O)C1=O` [Embelin] + Cc1nc(Nc2ncc(C(=O)Nc3c(C)cccc3Cl)s2)cc(N2CCN(CCO)CC2)n1 [Dasatinib] (partner 0.075 µM), the relative viability was determined as 0.508.
Molecule `CCCCCCCCCCCC1=C(O)C(=O)C=C(O)C1=O` [Embelin] + CC(=O)c1c(C)c2cnc(Nc3ccc(N4CCNCC4)cn3)nc2n(C2CCCC2)c1=O [Palbociclib] (partner 0.5 µM) returned a relative viability of 0.543.
As to `CCCCCCCCCCCC1=C(O)C(=O)C=C(O)C1=O` [Embelin] + COc1cccc2cc(-c3nc([C@H]4CC[C@H](C(=O)O)CC4)n4ncnc(N)c34)[nH]c12 [OSI-027] (partner 0.5 µM), the relative viability was determined as 0.677.
The same measure, in the same setting: then `CCCCCCCCCCCC1=C(O)C(=O)C=C(O)C1=O` [Embelin] + Nc1nc2[nH]cc(CCc3ccc(C(=O)N[C@@H](CCC(=O)O)C(=O)O)cc3)c2c(=O)[nH]1 [Pemetrexed] (partner 0.2 µM), with 0.613.

Still in this assay, the particulars now being: first compound 2.53 µM.
`CCCCCCCCCCCC1=C(O)C(=O)C=C(O)C1=O` [Embelin] + CCNC(=O)c1noc(-c2cc(C(C)C)c(O)cc2O)c1-c1ccc(CN2CCOCC2)cc1 [Luminespib] (partner 0.01 µM) registered a relative viability of 0.977.
`CCCCCCCCCCCC1=C(O)C(=O)C=C(O)C1=O` [Embelin] + Cc1nc(Nc2ncc(C(=O)Nc3c(C)cccc3Cl)s2)cc(N2CCN(CCO)CC2)n1 [Dasatinib] (partner 0.075 µM): the relative viability was determined as 0.438.
Take `CCCCCCCCCCCC1=C(O)C(=O)C=C(O)C1=O` [Embelin] + CC(=O)c1c(C)c2cnc(Nc3ccc(N4CCNCC4)cn3)nc2n(C2CCCC2)c1=O [Palbociclib] (partner 0.5 µM): the relative viability was determined as 0.547.
Still for that read-out and setting: then `CCCCCCCCCCCC1=C(O)C(=O)C=C(O)C1=O` [Embelin] + COc1cccc2cc(-c3nc([C@H]4CC[C@H](C(=O)O)CC4)n4ncnc(N)c34)[nH]c12 [OSI-027] (partner 0.5 µM), with 0.801; and `CCCCCCCCCCCC1=C(O)C(=O)C=C(O)C1=O` [Embelin] + Nc1nc2[nH]cc(CCc3ccc(C(=O)N[C@@H](CCC(=O)O)C(=O)O)cc3)c2c(=O)[nH]1 [Pemetrexed] (partner 0.2 µM), with 0.656.

Still in this assay, the particulars now being: first compound 8 µM.
For the molecule `CCCCCCCCCCCC1=C(O)C(=O)C=C(O)C1=O` [Embelin] + CCNC(=O)c1noc(-c2cc(C(C)C)c(O)cc2O)c1-c1ccc(CN2CCOCC2)cc1 [Luminespib] (partner 0.01 µM), the relative viability is 0.886.
Molecule `CCCCCCCCCCCC1=C(O)C(=O)C=C(O)C1=O` [Embelin] + Cc1nc(Nc2ncc(C(=O)Nc3c(C)cccc3Cl)s2)cc(N2CCN(CCO)CC2)n1 [Dasatinib] (partner 0.075 µM) displayed a relative viability of 0.335.
In turn, `CCCCCCCCCCCC1=C(O)C(=O)C=C(O)C1=O` [Embelin] + CC(=O)c1c(C)c2cnc(Nc3ccc(N4CCNCC4)cn3)nc2n(C2CCCC2)c1=O [Palbociclib] (partner 0.5 µM) yielded a relative viability of 0.488.
On the same count and under the same terms, then `CCCCCCCCCCCC1=C(O)C(=O)C=C(O)C1=O` [Embelin] + COc1cccc2cc(-c3nc([C@H]4CC[C@H](C(=O)O)CC4)n4ncnc(N)c34)[nH]c12 [OSI-027] (partner 0.5 µM), with 0.776; and `CCCCCCCCCCCC1=C(O)C(=O)C=C(O)C1=O` [Embelin] + Nc1nc2[nH]cc(CCc3ccc(C(=O)N[C@@H](CCC(=O)O)C(=O)O)cc3)c2c(=O)[nH]1 [Pemetrexed] (partner 0.2 µM), with 0.642.

A further assay has as its system LC-2-ad. The assay is described as above. Conditions: first compound 0.08 µM. An outline of the steps: as §1
Molecule `CCCCCCCCCCCC1=C(O)C(=O)C=C(O)C1=O` [Embelin] + CCNC(=O)c1noc(-c2cc(C(C)C)c(O)cc2O)c1-c1ccc(CN2CCOCC2)cc1 [Luminespib] (partner 0.01 µM) displayed a relative viability of 0.892.
As for `CCCCCCCCCCCC1=C(O)C(=O)C=C(O)C1=O` [Embelin] + Cc1nc(Nc2ncc(C(=O)Nc3c(C)cccc3Cl)s2)cc(N2CCN(CCO)CC2)n1 [Dasatinib] (partner 0.075 µM), the relative viability came to 0.596.
Turning to `CCCCCCCCCCCC1=C(O)C(=O)C=C(O)C1=O` [Embelin] + CC(=O)c1c(C)c2cnc(Nc3ccc(N4CCNCC4)cn3)nc2n(C2CCCC2)c1=O [Palbociclib] (partner 0.5 µM), the relative viability was 0.433.
Same read-out and setting: in the case of `CCCCCCCCCCCC1=C(O)C(=O)C=C(O)C1=O` [Embelin] + COc1cccc2cc(-c3nc([C@H]4CC[C@H](C(=O)O)CC4)n4ncnc(N)c34)[nH]c12 [OSI-027] (partner 0.5 µM) it was 0.85.
`CCCCCCCCCCCC1=C(O)C(=O)C=C(O)C1=O` [Embelin] + Nc1nc2[nH]cc(CCc3ccc(C(=O)N[C@@H](CCC(=O)O)C(=O)O)cc3)c2c(=O)[nH]1 [Pemetrexed] (partner 0.2 µM) showed a relative viability of 0.274.

The same assay, now with this note: first compound 0.8 µM.
As for `CCCCCCCCCCCC1=C(O)C(=O)C=C(O)C1=O` [Embelin] + CCNC(=O)c1noc(-c2cc(C(C)C)c(O)cc2O)c1-c1ccc(CN2CCOCC2)cc1 [Luminespib] (partner 0.01 µM), the relative viability came out at 1.28.
Molecule `CCCCCCCCCCCC1=C(O)C(=O)C=C(O)C1=O` [Embelin] + Cc1nc(Nc2ncc(C(=O)Nc3c(C)cccc3Cl)s2)cc(N2CCN(CCO)CC2)n1 [Dasatinib] (partner 0.075 µM) gave a relative viability of 0.837.
As to `CCCCCCCCCCCC1=C(O)C(=O)C=C(O)C1=O` [Embelin] + CC(=O)c1c(C)c2cnc(Nc3ccc(N4CCNCC4)cn3)nc2n(C2CCCC2)c1=O [Palbociclib] (partner 0.5 µM), the relative viability amounted to 0.442.
`CCCCCCCCCCCC1=C(O)C(=O)C=C(O)C1=O` [Embelin] + COc1cccc2cc(-c3nc([C@H]4CC[C@H](C(=O)O)CC4)n4ncnc(N)c34)[nH]c12 [OSI-027] (partner 0.5 µM) displayed a relative viability of 1.02.
Take `CCCCCCCCCCCC1=C(O)C(=O)C=C(O)C1=O` [Embelin] + Nc1nc2[nH]cc(CCc3ccc(C(=O)N[C@@H](CCC(=O)O)C(=O)O)cc3)c2c(=O)[nH]1 [Pemetrexed] (partner 0.2 µM): the relative viability is 0.282.

Still in this assay, the particulars now being: first compound 2.53 µM.
For the molecule `CCCCCCCCCCCC1=C(O)C(=O)C=C(O)C1=O` [Embelin] + CCNC(=O)c1noc(-c2cc(C(C)C)c(O)cc2O)c1-c1ccc(CN2CCOCC2)cc1 [Luminespib] (partner 0.01 µM), the relative viability stood at 1.1.
The same measure, in the same setting: in the case of `CCCCCCCCCCCC1=C(O)C(=O)C=C(O)C1=O` [Embelin] + Cc1nc(Nc2ncc(C(=O)Nc3c(C)cccc3Cl)s2)cc(N2CCN(CCO)CC2)n1 [Dasatinib] (partner 0.075 µM) it was 0.823; in that of `CCCCCCCCCCCC1=C(O)C(=O)C=C(O)C1=O` [Embelin] + CC(=O)c1c(C)c2cnc(Nc3ccc(N4CCNCC4)cn3)nc2n(C2CCCC2)c1=O [Palbociclib] (partner 0.5 µM), 0.535.
On the same count and under the same terms, then `CCCCCCCCCCCC1=C(O)C(=O)C=C(O)C1=O` [Embelin] + COc1cccc2cc(-c3nc([C@H]4CC[C@H](C(=O)O)CC4)n4ncnc(N)c34)[nH]c12 [OSI-027] (partner 0.5 µM), with 0.97; and `CCCCCCCCCCCC1=C(O)C(=O)C=C(O)C1=O` [Embelin] + Nc1nc2[nH]cc(CCc3ccc(C(=O)N[C@@H](CCC(=O)O)C(=O)O)cc3)c2c(=O)[nH]1 [Pemetrexed] (partner 0.2 µM), with 0.257.

Source of the values: the supplement of paper PMC10307832.
